From PMC4904373, “Azole Antifungal Sensitivity of Sterol 14α-Demethylase (CYP51) and CYP5218 from Malassezia globosa” (Scientific Reports, 2016)
≈ marks a conversion by molar mass, not a printed value. Where “and” joins values, the source holds several entries; their conditions need not be identical. Identical values can stand only once. Like-named read-outs stand apart in the source and are kept apart here.

Legend:
[1] = target: T1, M. globosa CYP5218 (Malassezia globosa, UniProt A8QCD3, A3L/A5L/F6A/I7V/S4L/S8F); assay: biochemical; type: binding; conditions: for binding spectra with CYP5218: result in words; for CYP5218 Kd (μM) Eadie-Hofstee / CYP5218 Kd (μM) Michaelis-Menten / Kd: 4 μM CYP5218, type I spectra, mean of three replicates with SD
Description: Reduced carbon monoxide difference spectroscopy[46][47] and absolute spectra between 700 and 300 nm were used to determine cytochrome P450 concentrations. Substrate and azole binding studies were performed[31][48] using 2.5 mM stock sterol solutions in 40% (wt/vol) (2-hydroxypropyl)-β-cyclodextrin (HPCD), 4 mg ml^−1 solutions of fatty acids in dimethylformamide (DMF), and stock 0.05, 0.1 and 0.2 mg ml^−1 solutions of azole antifungal agents in dimethylsulfoxide (DMSO). Sterols were titrated against 5 μM CYP51, fatty acids were titrated against 4 μM CYP5218 and azole antifungal agents were titrated against 2 μM CYP51 and CYP5218. The absorbance difference spectrum between 500 and 350 nm was determined after each incremental addition of ligand with saturation curves constructed from ΔApeak-trough against ligand concentration. […] The dissociation constants of the enzyme-azole complex were determined by non-linear regression (Levenberg-Marquardt algorithm) using a rearrangement of the Morrison equation for tight ligand binding. ProFit 6.1.12 (QuantumSoft, Zurich, Switzerland) was used for curve-fitting data. All ligand-binding studies were performed at 22 ± 2 °C and in triplicate. All spectral determinations were made using a Hitachi U-3310 UV/VIS spectrophotometer (San Jose, California).

[2] = target: T1, M. globosa CYP5218; conditions: 100 μM fatty acid, 1 hour to overnight (~16 h), three different cytochrome P450 reductase redox partners
Description: The CYP5218 fatty acid reconstitution assay system used was based on that previously described by Guengerich[54] and contained 200 nM of CYP5218, 500 nM of cytochrome P450 reductase (A. fumigatus CPR1[52]) or H. sapiens CPR[55] or C. albicans CPR[56], 50 μM DLPC, 100 μM fatty acid (lauric acid, myristic acid, palmitic acid, palmitoleic acid, oleic acid and linoleic acid), 4 mM glucose-6-phosphate, 3 U/ml yeast glucose-6-phosphate dehydrogenase in a final volume of 500 μl with 0.1 M potassium phosphate (pH 7.4). Assay mixtures were incubated at 37 °C for 5 min prior to initiation with 4 mM β-NADPHNa4 and then incubated for a further 60 min or overnight (~16 h) at 37 °C. Fatty acid metabolites were recovered by extraction with dichloromethane and dried in a vacuum centrifuge. Samples were derivatized with 200 μl anhydrous pyridine and 250 μl BSTFA:TMCS (99:1) (30 min at 80 °C) and extracted with 500 μl of hexane, prior to analysis by GC/MS (Thermo GC Trace 1300 and ISQ MS). GC analysis was performed with a 5% phenyl methylpolysiloxane column (DB5) (Agilent Technologies). The oven programme was as follows: initial: 70 °C, with 3 min hold; ramp: 10 °C min^−1 to 180 °C (held for 2 min), 10 °C min^−1 to 250 °C (held for 2 min) and 10 °C min^−1 to 280 °C (held for 2 min). Data were analyzed using Thermo Xcalibur 2.2 software.

[3] = tested on: M. globosa ATCC MYA-4612; assay: M. globosa MIC100 determination; type: cell-based, Malassezia globosa; conditions: Malassezia globosa, 168 h; modified Dixon medium, 30 °C, 7 days; read-out: MIC100
Description: M. globosa ATCC MYA-4612 was grown for 7 days at 30 °C in modified Dixon medium (3.6% malt extract, 2% desiccated ox-bile, 1% Tween 40, 0.6% peptone, 0.2% glycerol, 0.2% oleic acid, pH adjusted to 6 with HCl) until a culture density of 1.5 × 10^5 cells ml^−1 was obtained. Cells from 3 ml of stock culture were harvested, suspended in 1 ml of saline and used to inoculate 30 ml of fresh modified Dixon medium for use as M. globosa inoculums in MIC determinations. Stock azole concentrations of 1600, 800, 400, 200, 100, 50, 25, 12.5, 6.25, 3.125 and 0 μg ml^−1 were prepared in DMSO. These were diluted ten-fold with fresh modified Dixon media and 20 μl of the diluted azole solutions were then mixed with 180 μl of M. globosa inoculum in microtiter plate wells to yield final azole concentrations of 16, 8, 4, 2, 1, 0.5, 0.25, 0.125, 0.0625, 0.03125 and 0 μg ml^−1. The microtiter plates were incubated at 30 °C for 7 days and then read. Each azole MIC100 determination was performed in triplicate.

[4] = target: T2, M. globosa CYP51 (Malassezia globosa, UniProt A8Q3I7, A7V/E4L/G6A/I5L/L2A/Q3L/W8F); assay: biochemical; type: binding
Description: (§1) Reduced carbon monoxide difference spectroscopy[46][47] and absolute spectra between 700 and 300 nm were used to determine cytochrome P450 concentrations. Substrate and azole binding studies were performed[31][48] using 2.5 mM stock sterol solutions in 40% (wt/vol) (2-hydroxypropyl)-β-cyclodextrin (HPCD), 4 mg ml^−1 solutions of fatty acids in dimethylformamide (DMF), and stock 0.05, 0.1 and 0.2 mg ml^−1 solutions of azole antifungal agents in dimethylsulfoxide (DMSO). Sterols were titrated against 5 μM CYP51, fatty acids were titrated against 4 μM CYP5218 and azole antifungal agents were titrated against 2 μM CYP51 and CYP5218. The absorbance difference spectrum between 500 and 350 nm was determined after each incremental addition of ligand with saturation curves constructed from ΔApeak-trough against ligand concentration. The dissociation constants (Kd) for sterols and fatty acids were determined by non-linear regression (Levenberg-Marquardt algorithm) using the Michaelis-Menten equation. The dissociation constants of the enzyme-azole complex were determined by non-linear regression (Levenberg-Marquardt algorithm) using a rearrangement of the Morrison equation for tight ligand binding. ProFit 6.1.12 (QuantumSoft, Zurich, Switzerland) was used for curve-fitting data. All ligand-binding studies were performed at 22 ± 2 °C and in triplicate. All spectral determinations were made using a Hitachi U-3310 UV/VIS spectrophotometer (San Jose, California).

[5] = target: T1, M. globosa CYP5218; assay: biochemical; type: binding; conditions: for azole binding to CYP5218 (binding spectra): 2 μM CYP5218, result in words; for Kd: azole titrated against 2 μM CYP5218
Description: as §1

[6] = target: T2, M. globosa CYP51; conditions: 0.5 μM CYP51, 50 μM sterol substrate
Description: (§2) Sterol metabolites were recovered by extraction with ethyl acetate followed by derivatization with 0.1 ml N,O-bis(trimethylsilyl)trifluoroacetamide (BSTFA) : trimethylchlorosilane (TMCS) (99:1) and 0.3 ml anhydrous pyridine (2 h at 80 °C) prior to analysis by gas chromatography mass spectrometry (GC/MS)[53].

[7] = target: T2, M. globosa CYP51; assay: biochemical; conditions: IC50, 0.5 μM CYP51, CYP51:AfCPR1 1:2, 50 μM lanosterol as substrate
Description: as §2

[8] = tested on: M. globosa; assay: Sterol analysis of azole-treated M. globosa; type: cell-based, Malassezia globosa; conditions: 0.125 μg ml^−1 ketoconazole
Description: Individual sterols were identified by reference to relative retention times, mass ions and fragmentation patterns. Sterol composition was calculated using peak areas.

[9] = tested on: C=C(CC[C@@H](C)[C@H]1CC[C@@]2(C)C3=C(CC[C@]12C)[C@@]1(C)CC[C@H](O)C(C)(C)[C@@H]1CC3)C(C)C; assay: purified protein, by the assay type; conditions: other: 0.13 μM CYP51, 0.5 μM AfCPR1, 5 min at 37 °C, substrate inhibition equation
Description: (§3) Assay mixtures were incubated at 37 °C for 10 minutes prior to initiation with 4 mM β-NADPHNa4 followed by shaking at 37 °C for 20 minutes. Sterol metabolites were recovered by extraction with ethyl acetate followed by derivatization with 0.1 ml N,O-bis(trimethylsilyl)trifluoroacetamide (BSTFA) : trimethylchlorosilane (TMCS) (99:1) and 0.3 ml anhydrous pyridine (2 h at 80 °C) prior to analysis by gas chromatography mass spectrometry (GC/MS)[53].

[10] = tested on: C=C(CC[C@@H](C)[C@H]1CC[C@@]2(C)C3=C(CC[C@]12C)[C@@]1(C)CC[C@H](O)[C@@H](C)[C@@H]1CC3)C(C)C; assay: purified protein, by the assay type; conditions: other: 0.13 μM CYP51, 0.5 μM AfCPR1, 5 min at 37 °C, substrate inhibition equation
Description: as §3

[11] = CYP5218 Kd (μM) Michaelis-Menten

T2 sequence (A8Q3I7 whole entry L2A/Q3L/E4L/I5L/G6A/A7V/W8F): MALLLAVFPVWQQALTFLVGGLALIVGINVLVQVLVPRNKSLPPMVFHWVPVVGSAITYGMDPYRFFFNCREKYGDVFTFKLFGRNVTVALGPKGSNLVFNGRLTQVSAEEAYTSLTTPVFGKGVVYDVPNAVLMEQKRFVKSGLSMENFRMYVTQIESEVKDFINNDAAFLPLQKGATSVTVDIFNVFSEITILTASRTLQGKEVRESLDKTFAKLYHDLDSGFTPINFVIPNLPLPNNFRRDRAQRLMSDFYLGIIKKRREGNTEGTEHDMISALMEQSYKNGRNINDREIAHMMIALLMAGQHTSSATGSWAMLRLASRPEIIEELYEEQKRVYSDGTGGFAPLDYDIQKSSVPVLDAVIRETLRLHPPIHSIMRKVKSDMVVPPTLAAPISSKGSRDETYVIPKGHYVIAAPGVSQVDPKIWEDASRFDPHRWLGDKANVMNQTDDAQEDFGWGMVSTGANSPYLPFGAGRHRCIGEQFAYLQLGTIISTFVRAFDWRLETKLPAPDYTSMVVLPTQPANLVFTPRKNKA

Compound: C=CCCCCCCCCCCCCCC [1-hexadecene]
- binding spectra with CYP5218 [1]: No binding spectra

Compound: CCCCCCCCCCCCCCCCCCCC(=O)O [Arachidic acid, arachidic acid]
- CYP5218 Kd (μM) Eadie-Hofstee [1]: no binding
- CYP5218 Kd (μM) Michaelis-Menten [1]: no binding
- binding spectra with CYP5218 [1]: No binding spectra

Compound: CCCCC/C=C\C/C=C\C/C=C\C/C=C\CCCC(=O)O [Arachidonic acid, arachidonic acid]
- Kd ([1]; CYP5218 Kd (μM) Eadie-Hofstee): 256 ± 36 µM
- Kd [1, 11]: 264 ± 34 µM

Compound: CCCCCCCCCC(=O)O [Capric acid, capric acid]
- CYP5218 Kd (μM) Eadie-Hofstee [1]: no binding
- CYP5218 Kd (μM) Michaelis-Menten [1]: no binding
- binding spectra with CYP5218 [1]: No binding spectra

Compound: CC/C=C\CCCCCCCC(=O)O [Lauroleic acid, lauroleic acid]
- CYP5218 Kd (μM) Michaelis-Menten [1]: poor fit
- Kd ([1]; read-out: CYP5218 Kd (μM) Eadie-Hofstee): 148 ± 20 µM

Compound: CCCC/C=C\CCCCCCCC(=O)O [Myristoleic acid, myristoleic acid]
- Kd ([1]; CYP5218 Kd (μM) Eadie-Hofstee): 151 ± 8 µM
- Kd [1, 11]: 158 ± 20 µM

Compound: CCCCCCCC/C=C\CCCCCCCC(=O)O [Oleic acid, oleic acid]
- Kd ([1]; CYP5218 Kd (μM) Eadie-Hofstee): 90 ± 16 µM
- Kd [1, 11]: 93 ± 11 µM
- product formation in CYP5218 reconstitution assay [2]: no observed product formation

Compound: CCCCCCCCCCCCCCCC(=O)O [Palmitic acid, palmitic acid]
- Kd ([1]; CYP5218 Kd (μM) Eadie-Hofstee): 253 ± 77 µM
- Kd [1, 11]: 1020 ± 755 µM
- product formation in CYP5218 reconstitution assay [2]: no observed product formation

Compound: CCCCCC/C=C\CCCCCCCC(=O)O [Palmitoleic acid, palmitoleic acid]
- Kd ([1]; CYP5218 Kd (μM) Eadie-Hofstee): 114 ± 5 µM
- Kd [1, 11]: 113 ± 7 µM
- product formation in CYP5218 reconstitution assay [2]: no observed product formation

Compound: CCCCCCCCCCCCCCCCCC(=O)O [Stearic acid, stearic acid]
- CYP5218 Kd (μM) Eadie-Hofstee [1]: no fit ^a
- CYP5218 Kd (μM) Michaelis-Menten [1]: no fit ^a

Compound: Clc1ccccc1C(c1ccccc1)(c1ccccc1)n1ccnc1 [clotrimazole]
- MIC [3]: 8 µg/mL (≈ 23.2 µM)
- Kd [4]: 0.004 ± 0.002 µM
- azole binding to CYP5218 (binding spectra) [5]: type II binding spectra
- Kd [5]: ~0.5 µM and 0.486 µM

Compound: C=C(CC[C@@H](C)[C@H]1CC[C@@]2(C)C3=C(CC[C@]12C)[C@@]1(C)CC[C@H](O)C(C)(C)[C@@H]1CC3)C(C)C [eburicol]
- binding spectra with CYP5218 [1]: failed to give reproducible binding spectra
- Kd [4]: 23 µM
- turnover number [6]: 5.6 min⁻¹

Compound: CCC(C)n1ncn(-c2ccc(N3CCN(c4ccc(OCC5COC(Cn6cncn6)(c6ccc(Cl)cc6Cl)O5)cc4)CC3)cc2)c1=O (stereo not shown) [itraconazole]
- IC50 [7]: 0.188 ± 0.008 µM
- MIC [3]: 0.0625 µg/mL (≈ 0.0886 µM)
- Kd [4]: 0.002 ± 0.001 µM
- azole binding to CYP5218 (binding spectra) [5]: type II binding spectra
- Kd [5]: ~0.4 µM and 0.407 µM

Compound: CC(=O)N1CCN(c2ccc(OCC3COC(Cn4ccnc4)(c4ccc(Cl)cc4Cl)O3)cc2)CC1 (stereo not shown) [ketoconazole]
- IC50 [7]: 0.176 ± 0.016 µM
- MIC [3]: 0.25 µg/mL (≈ 0.47 µM)
- Kd [4]: 0.002 ± 0.001 µM
- azole binding to CYP5218 (binding spectra) [5]: type II binding spectra
- Kd [5]: ~1.6 µM
- sterol fraction (%) 4,4-dimethylzymosterol [8]: 0%
- sterol fraction (%) Eburicol [8]: 30.33%
- sterol fraction (%) Episterol [8]: 0%
- sterol fraction (%) Ergosta-7-enol [8]: 1.58%
- sterol fraction (%) Ergosta-8,22-dienol [8]: 1.89%
- sterol fraction (%) Ergosta-8-enol [8]: 2.23%
- sterol fraction (%) Ergosterol [8]: 51.50%
- sterol fraction (%) Fecosterol [8]: 0.98%
- sterol fraction (%) Obtusifoliol [8]: 0.18%
- sterol fraction (%) Cholesterol ([8]; cholesterol assimilated from growth media): 1.92%

Compound: CC(C)=CCC[C@@H](C)[C@H]1CC[C@@]2(C)C3=C(CC[C@]12C)[C@@]1(C)CC[C@H](O)C(C)(C)[C@@H]1CC3 [lanosterol]
- binding spectra with CYP5218 [1]: failed to give reproducible binding spectra
- Kd [4]: 32 µM
- turnover number [6]: 1.7 min⁻¹

Compound: CCCCC/C=C\C/C=C\CCCCCCCC(=O)O [linoleic acid]
- Kd ([1]; CYP5218 Kd (μM) Eadie-Hofstee): 36 ± 6 µM
- Kd [1, 11]: 36 µM
- product formation in CYP5218 reconstitution assay [2]: no observed product formation

Compound: CCCCCCCCCCCCCCCC [n-hexadecane]
- binding spectra with CYP5218 [1]: No binding spectra

Compound: C=C(CC[C@@H](C)[C@H]1CC[C@@]2(C)C3=C(CC[C@]12C)[C@@]1(C)CC[C@H](O)[C@@H](C)[C@@H]1CC3)C(C)C [obtusifoliol]
- Kd [4]: 28 µM
- turnover number [6]: 3.4 min⁻¹

Compound: C[C@@H](c1ncncc1F)[C@](O)(Cn1cncn1)c1ccc(F)cc1F [voriconazole]
- MIC [3]: 1 µg/mL (≈ 2.86 µM)
- Kd [4]: 0.008 ± 0.005 µM
- Kd [5]: ~107 µM

Compound: M. globosa CYP51 (Malassezia globosa CBS 7966; A7V/E4L/G6A/I5L/L2A/Q3L/W8F)
- Km [9]: 55.91 ± 19.79 µM
- kcat [9]: 1.092 ± 0.2675 s⁻¹
- Km [10]: 42.09 ± 10.45 µM
- kcat [10]: 0.8948 ± 0.2368 s⁻¹
